From article PMC3927474, “Whole body synthesis rates of DHA from α-linolenic acid are greater than brain DHA accretion and uptake rates in adult rats” (Journal of Lipid Research, 2014)
Values joined by “and” are separate entries in the source; they are usually repeats but may differ in a detail not shown here. Equal values may be shown once. Marks after values point to notes of the source that are not given here.

How the values were obtained:
[1] = Description: At 15 weeks postweaning, rats were subjected to surgery to implant a catheter into their jugular vein. The animals were anesthetized using isoflurane inhalation (5% induction, 1–3% maintenance). Before the incision was made, hair was shaved from the incision site and the site was sterilized with iodine and ethanol. A transverse incision was made anterior to the upper thorax. The jugular vein was located by blunt dissection. The vein was isolated and tied off. The vein was then nicked and a catheter (PE 50; Intramedic, Sparks, MD) with a 3.5 cm silastic tubing end (VWR, Mississauga, ON, Canada) was inserted into the vein. The catheter was secured using 3.0 silk sutures and a 16 gauge Angiocath (Becton Dickinson, Mississauga, ON, Canada) was used to guide the catheter subcutaneously to a site outside the body near the scapula. An incision was made at this site and the catheter was tucked beneath the skin at the incision site. The incision site was stapled to protect the catheter from the rats. The incision site on the chest was closed with 4.0 silk sutures and the rats were allowed to recover from the anesthetic under a heat lamp. Approximately 24 h after the surgery, the tail vein of the rats was cannulated with a 24 gauge Angiocath (Becton Dickinson). While the rats were restrained, the staple closing the incision site on the scapula was removed and the jugular vein catheter was connected to a longer polyethylene catheter. The rats were then placed in an infusion box that contained food, a chew toy, and bedding from the rat's cage. The tail vein catheter was then connected to an infusion line. Rats were able to move freely within the infusion box throughout the infusion.
Modified from the method of Rapoport, Igarashi, and Gao ([38]); 4.5 μmol/100 g body weight of ^2H-ALA (^2H14-ALA, purity >95% confirmed by GC-FID and GC-MS; Cayman Chemical, Ann Arbor, MI) was infused into the tail vein for 3 h. To prepare the infusate, a known amount of ^2H-ALA was dissolved in 5 mM HEPES buffer (pH 7.4) containing 50 mg/ml fatty acid-free BSA. The infusate was mixed by sonication at 37°C. An infusion pump (Harvard Apparatus PHD 2000; Holliston, MA) was used to infuse 3.78 ml of tracer solution at a constant rate of 0.021 ml/min for 3 h. Immediately before the infusion and every 30 min during the infusion 0.2 ml of blood was drawn from the jugular vein. The jugular vein catheter was flushed with heparinized saline (5% by volume) after every blood draw to prevent coagulation in the line. After 180 min of the infusion, 1 ml of blood was drawn from the jugular vein and the animals were euthanized with a lethal injection of T-61 into the tail vein. All blood samples were centrifuged for 10 min (PC-100 microcentrifuge; Diamed, ON, Canada) and the plasma was collected and stored at −80°C.
Plasma volume was determined using the method of Schreihofer, Hair, and Stepp as modified by Gao et al.([24], [39]). Briefly, a known amount of Evans Blue dye was injected into the tail veins of the rats. After 15 min, 1 ml of blood was drawn from the jugular vein, twice. The plasma was collected as described above, and 0.1 ml of plasma was diluted into 1 ml of saline. Absorbance at 604 nm was measured with a Nanodrop 1000 and by comparing the absorbance to a standard curve, the concentration of the dye was determined.
Fifty microliters of plasma were added to a test tube which contained known amounts of unesterified 17:0 standard and di-17:0 phosphatidylcholine standard. Lipids were extracted from the plasma using the method of Folch, Lees, and Sloane Stanley ([28]), as described above.
Thin layer chromatography (TLC) was used to separate esterified and unesterified lipids. The TLE was dried under N2 and reconstituted in 250 μl chloroform. TLC plates (TLC silica gel 60, EMD) that were washed in chloroform and methanol (2:1) were activated by heat at 100°C for 1 h.

[2] = Balance study: n-3 and n-6 PUFA balance (intake, excretion, accretion, metabolic consumption); type: in vivo, rat; conditions: for Fecal excretion: mean % excretion applied to intake; for Fecal excretion / Metabolic consumption of dietary PUFAs: DHA group: refers to DHA; for Dietary PUFA excreted in the feces: 24 h feces at 8 weeks postweaning, percentage of intake; for Metabolic consumption of dietary PUFAs: n-3 PUFA, Eq. 1, 15 weeks
Protocol: All procedures were performed in accordance with the policies set out by the Canadian Council on Animal Care and were approved by the Animal Ethics Committee at the University of Toronto. Three Long Evans dams each with 18-day-old male Long Evans pups were ordered from Charles River Laboratories (St. Constant, QC, Canada). Pups were nonlittermates and each dam was housed with pups. Upon arrival, dams were allocated to one of the three diets (described below). When the pups were 21 days old, two pups from each dam were euthanized by high-energy head-focused microwave fixation (4.5 kW for 0.9 s). Brains were removed immediately and stored at -80°C until lipid analysis. Bodies were also stored at -80°C immediately after euthanization until analysis. The brains and bodies of these pups were used to determine the PUFA content of the rats at weaning (i.e., baseline PUFA content). […] For the balance study, the rats were weighed, food intake was determined, and uneaten food was replaced with fresh food on a weekly basis. Rats were euthanized by CO2 asphyxiation. Brains were removed and dissected sagittally. Carcasses and one half brain per rat were stored immediately at -80°C (to be later analyzed for lipid content). […] For the steady-state infusion study and the brain DHA uptake study, a jugular vein catheter was surgically implanted into the rats. […] Carcasses were thawed overnight in a refrigerator at 3°C, cut into pieces, and passed through a #12 hand grinder. After the whole body had passed through the grinder once, the homogenate was mixed together by hand and passed at least one more time through the grinder until the mixture was sufficiently homogeneous. Due to the small size of the pups all of the 21-day-old pup bodies were passed through the grinder together. […] New chloroform was added to the remaining aqueous phase, the mixture was once again centrifuged, and the chloroform layer was extracted and added to the previously extracted chloroform layer. […] One hemisphere was thawed briefly and dissected over ice to separate the brainstem, cerebellum, cortex, hippocampus, striatum, and the rest of the brain. […] The homogenizer was then washed with methanol, which was then transferred to the test tube containing the homogenized brain and KCl. […] The chloroform layer was extracted and new chloroform was added to the aqueous phase. […] At 8 weeks postweaning all the feces produced by a rat in 24 h were collected. […] Mean PUFA excretion (percentage of intake) was determined and applied to all animals to determine PUFA excretion. […] Nu-Check Prep, Elysian, MN) was added to the TLE. […] Samples were injected in […] mode. The injector and detector ports were set at 250°C. […] The carrier gas was helium, set to a constant flow rate of 0.7 ml/min. Peaks were identified by retention times of authentic FAME standards (Nu-Chek Prep). […] The concentrations were expressed on a per gram basis then multiplied by total weight of the tissue to determine the total amount of each fatty acid in the tissue.

[3] = average over 15 weeks, listed as DHA diet

CC/C=C\C/C=C\C/C=C\CCCCCCCC(=O)O [ALA, α-linolenic acid]
Mean plasma [^2H-ALA]unesterified during infusion ([1]; 4.5 μmol/100 g ^2H-ALA i.v. over 3 h): 2.5 ± 0.5 nmol/mL
Smax,i (maximum first derivative) ([1]; 15 wk diet, 3 h ^2H-ALA infusion, n = 4): 0.339 ± 0.135 nmol/min
Daily Secretion Rate (daily DHA synthesis rate) ([1]; 15 wk diet, n = 4): 1452 ± 395 nmol/day
FDHA (turnover rate of esterified plasma DHA) ([1]; 15 wk diet, n = 4): 0.0002 ± 4e-05 min⁻¹
Jsyn (synthesis rate of DHA from ALA) ([1]; 15 wk diet, n = 4): 1.008 ± 0.274 nmol/min
k1,DHA (synthesis-secretion coefficient for DHA synthesis from ALA) ([1]; 15 wk diet, n = 4): 0.131 ± 0.04 mL/min
DHA synthesis rate relative to brain DHA uptake rate ([1]; ALA-fed rats, infusion synthesis vs ^14C-DHA uptake): approximately 3 fold
DHA synthesis rate from ALA (steady-state infusion) ([1]; at 15 weeks postweaning): 1.5 µmol/day
Fecal Excretion of LNA ([2]; 15 weeks): 877 µmol
Metabolic consumption of dietary PUFA (n-6) ([2]; 15 weeks): 147161 µmol
Fecal excretion ([2]; 15 weeks): 57 ± 2 µmol
Body Content of n-6 PUFA, Day 105 ([2]; 15 wk diet): 29170 µmol
Brain Content of n-6 PUFA, Day 105 ([2]; 15 wk diet): 20 µmol
Total Accretion: 18:3n-6 ([2]; 15 wk diet): 52 µmol
Total Accretion: 20:2n-6 ([2]; 15 wk diet): 169 µmol
Total Accretion: 22:4n-6 ([2]; 15 wk diet): 138 µmol
Total Accretion: ARA ([2]; 15 wk diet): 1806 µmol
Total Accretion: LNA ([2]; 15 wk diet): 25157 µmol
Total Accretion: Total n-6 PUFA ([2]; 15 wk diet): 27489 µmol
Body content of n-3 PUFAs, Day 105 ([2]; 15 wk diet, n = 11): 2352 ± 166^b μmol
Brain content of n-3 PUFAs, Day 105 ([2]; 15 wk diet, n = 11): 14 ± 2^b μmol
Dietary PUFA excreted in the feces [2]: 0.27 ± 0.002%
Brain DHA accretion rate (balance study) ([2]; average over 15 weeks): 0.032 ± 0.005 µmol/day
Total DHA synthesis-accretion rate (balance study) ([2]; average over 15 weeks, body + brain, listed as ALA diet): 4.2 µmol/day and 4.2 ± 0.4 µmol/day
DHA synthesis and accretion in ALA-fed rats relative to brain DHA accretion of DHA-fed rats ([2]; balance study): 100 fold
Dietary ALA metabolically consumed ([2]; balance study): approximately 90%
Body Content of n-6 PUFA, Day 0 ([2]; baseline): 1491 µmol
Brain Content of n-6 PUFA, Day 0 ([2]; baseline): 14 µmol
Body content of n-3 PUFAs, Day 0 ([2]; baseline, 21-day-old pups, n = 2): 139 ± 3 µmol
Brain content of n-3 PUFAs, Day 0 ([2]; baseline, n = 2): 10 ± 0.6 µmol
Total accretion: 20:3n-3 ([2]; body + brain, 15 wk diet): 110 ± 11^ab μmol
Total accretion: ALA ([2]; body + brain, 15 wk diet): 1500 ± 100^b μmol
Total accretion: DHA ([2]; body + brain, 15 wk diet): 440 ± 39^b μmol
Total accretion: DPAn-3 ([2]; body + brain, 15 wk diet): 90 ± 7^b μmol
Total accretion: EPA ([2]; body + brain, 15 wk diet): 70 ± 10^b μmol
Total accretion: Total n-3 PUFA ([2]; body + brain, 15 wk diet): 2209 ± 107^b μmol
Metabolic consumption of dietary PUFAs [2]: 19037 ± 617^b μmol

CC/C=C\C/C=C\C/C=C\C/C=C\C/C=C\C/C=C\CCC(=O)O [DHA, Docosahexaenoic acid]
Reduction of DHA synthesis by 2% dietary DHA ([1]; synthesis rate not quantifiable in DHA-fed rats): greater than 30 fold
Metabolic consumption of dietary PUFA (n-6) ([2]; 15 weeks): 157517 µmol
Fecal excretion ([2]; 15 weeks): 10 ± 0.4 µmol
Body Content of n-6 PUFA, Day 105 ([2]; 15 wk diet): 32391 µmol
Brain Content of n-6 PUFA, Day 105 ([2]; 15 wk diet): 17 µmol
Total Accretion: 18:3n-6 ([2]; 15 wk diet): 41 µmol
Total Accretion: 20:2n-6 ([2]; 15 wk diet): 167 µmol
Total Accretion: 22:4n-6 ([2]; 15 wk diet): 97 µmol
Total Accretion: ARA ([2]; 15 wk diet): 1539 µmol
Total Accretion: LNA ([2]; 15 wk diet): 28810 µmol
Total Accretion: Total n-6 PUFA ([2]; 15 wk diet): 30720 µmol
Dietary PUFA excreted in the feces [2]: 0.07 ± 0.02%
Brain DHA accretion rate (balance study) ([2]; average over 15 weeks): 0.042 ± 0.007 µmol/day
Brain DHA accretion rate (balance study) [2, 3]: 0.042 µmol/day
DHA uptake and accretion rate into the brain (balance study) [2, 3]: 42 nmol/day and 42 ± 7 nmol/day
Brain Content of n-6 PUFA, Day 0 ([2]; baseline): 14 µmol
Total accretion: DHA ([2]; body + brain, 15 wk diet): 1119 ± 62^c μmol
Metabolic consumption of dietary PUFAs [2]: 15783 ± 548^b,** μmol
